Values after ≈ are worked out from the molar mass of the structure shown. One block for each molecule: values may come before it.
Assays:
[1] = Single dose i.p. bolus liver levels / liver targeting in mice; details: for reduction of peripheral exposure (liver targeting): administered intraperitoneally
Procedure: At specified times post injection, mice were anesthetized and exsanguinated via cardiac puncture. The whole liver was removed, and snap-frozen in liquid nitrogen, and homogenized using a Polytron homogenizer PT 10/35 (Brinkmann Instruments, Westbury, N.Y.) in 3 volumes of 10% (v/v) perchloric acid (PCA). After a 5 min centrifugation at 2,500×g, 1 mL of supernatant was neutralized using 0.3 mL 3 M KOH/3 M KHCO3 and mixed thoroughly. Samples were then centrifuged for 5 minutes and resulting supernatants were treated with periodate in order to remove endogenous ribonucleotides which otherwise might interfere with araCTP detection. […] Resulting samples were analyzed by HPLC as described below.
To measure bone marrow araCTP, the bone marrow samples were flushed from the marrow cavities of femurs with 1.2 ml saline into pre-weighed Eppendorf tubes. After centrifugation for 20-30 seconds (Eppendorf microfuge, 14,000 rpm) and removal of the supernatant, 12 volumes of 3% PCA (v/v) were added to the bone marrow cell pellets. Samples were then vortexed until the pellet was well dissolved and centrifuged as above for 10 min. Ninety μL of extracted supernatant was neutralized to pH 7-8 using 30 μL 1 M KOH/1 M KHCO3 and again centrifuged. Resulting supernatants were periodate-treated as above.
Samples (50 μL) were injected onto the column in 70% 10 mM ammonium phosphate buffer and 30% 1 M ammonium phosphate buffer, both at pH 3.5 and containing 6% ethanol. […] A standard curve was prepared by adding known amounts of araCTP into PCA extracts from control liver or bone marrow prior to neutralizing, and preparing HPLC samples accordingly.
To obtain plasma, blood was transferred to heparinized micro-collection tubes and centrifuged in an Eppendorf microfuge at 14,000 rpm for 2 minutes. Resulting plasma was collected, placed on dry ice, and subsequently stored at −20° C. On the day of analysis, proteins were precipitated by adding 1 mL acetonitrile to 100 μL of plasma. After 10 min centrifugation (Eppendorf microfuge, 14,000 rpm), the supernatant was removed and dried in a Savant SpeedVac Plus SC110A. Samples were reconstituted with 110 μL of mobile phase buffer (20 mM KH2PO4, pH 4.5), sonicated for 5 min, and centrifuged for 30 seconds. […] AraC and prodrugs were detected by absorbance at 280 nm and quantitated using standard curves obtained with spiked plasma samples processed as above.
Results are expressed as mean±standard error of the mean. Data were analyzed by repeated measures ANOVA, followed by the Tukey HSD post-hoc test for comparisons at individual time points when appropriate. A p-value of less than 0.05 was considered statistically significant. Dotted lines in figures indicate LOQ (limit of quantitation) using the indicated HPLC method.
(§1) In those studies, liver, plasma and bone marrow samples were obtained at necropsy to evaluate liver targeting.
(§2) Results are expressed as mean±standard error of the mean. When appropriate, AUC was calculated from time zero to the last time-point of the study. Liver targeting indices (LTIs) were calculated by dividing the liver araCTP AUC by the AUC for plasma araC (plasma LTI) or by the AUC for bone marrow araCTP (bone marrow LTI) for each compound. For the continuous infusion studies, the steady state araCTP levels were divided by the steady state plasma araC levels.

[2] = Mouse 5-day safety pharmacology; assay type: in vivo; details: mice; for histopathology of liver, kidney and small intestine: 100 mg/kg araC or 1000 mg/kg CE Compound C; for red blood cell parameters (erythrocyte numbers, hematocrit, hemoglobin): 5 days i.p.; for red blood cell parameters (erythrocyte numbers, hematocrit, hemoglobin) / Glucose: araC 30 and 100 mg/kg/day; for effect on body weight: daily i.p. 5 days, highest dose: araC 100 mg/kg/day; for Glucose: Compound C 1000 mg/kg/day
Procedure: AraC was purchased from Sigma Chemical Co. (St. Louis, Mo., catalog # C1768, lot # 39H5962). Compound C and araC were dissolved in sterile physiological saline. Stock solutions were prepared daily from pre-weighed drug. All but the highest concentrations were prepared by diluting the stock solutions using additional sterile saline. Any drug not used immediately was refrigerated and used within 24 hours. All prodrugs were dosed in cytarabine molar equivalents (CE).
Male NIH Swiss Webster mice (25 to 33 g body weight, Harlan Sprague Dawley, Indianapolis, Ind.) were injected i.p. with Compound C, araC or vehicle once a day on days 0-4, approximately 3 to 4 hours following the beginning of the vivarium light cycle. Doses for Compound C were 1000, 300, 100 and 30-mg/kg nucleoside equivalents/day (equal to 1848, 554, 185 and 55.4 mg/kg/day) whereas araC was administered at 100, 30, 10 and 3 mg/kg/day. The vehicle was saline. Body weights were recorded on days 0-4 immediately prior to compound administration and on day 5 prior to sacrifice. All mice were sacrificed on day 5 (23-25 hours following the last i.p. dose) by exsanguination under halothane anesthesia, and subsequent cervical dislocation. The blood from each animal was analyzed for blood chemistry and hematology parameters as described in Example H. Livers were excised and fixed in neutral-buffered 10% formalin, and bone marrow was flushed from the right femur using 1 ml PBS without calcium or magnesium and nucleated cell counts measured as in Example H.
EDTA-treated blood samples were submitted to LabCorp (LabCorp, San Diego, Calif.) for hematology analysis including erythrocyte and platelet numbers, hemoglobin, and hematocrit. Serum chemistry analysis was also performed by LabCorp. Tissue specimens from mice treated with vehicle or 100 mg/kg araC or 1000 mg/kg CE Compound C were coded and shipped in formalin to Comparative Biosciences (Mountain View, Calif.) for preparation of hematoxylin/eosin-stained tissue sections and histopathology evaluation. Specimen codes for the histopathology studies were: #1-7, Compound C 1000 mg/kg/day; #33-40, araC 100 mg/kg/day; #65-72, Saline vehicle.
Results are expressed as mean±standard error for 5-8 animals per dose group. For selected hematology parameters, data for each animal were also presented as a % of the mean of the vehicle group. Statistical analysis was performed by one-way ANOVA followed by Dunnett's post-hoc test for differences between a control group and multiple dose groups. A p-value of less than 0.05 was considered statistically significant.

[3] = Liver araCTP and liver targeting with continuous i.v. infusion in rats
Excerpt: A saline filled blunt PE-50 tubing catheter (Intramedic, Becton Dickinson, Sparks, Md.) was inserted into the jugular vein, exteriorized between the scapulae and connected to a swivel-tethering constant infusion system (Lomir Biomedical, Inc., Malone, N.Y. and Harvard Apparatus, Inc., South Natick, Mass.). The tubing was filled with heparinized saline and sealed, and the animals allowed to recover for one to seven days.
After the various durations of infusion the animals were anesthetized by intra-catheter injections of the anesthetic mix described above. Blood samples were obtained via cardiac puncture using a 23-gauge needle attached to a heparin coated 3 cc syringe.
as §1, §2

[4] = Plasma stability in human plasma; assay type: in vitro ADME
Procedure: Male- and female-pooled human plasma (Bioreclamation Inc., Hickville, N.Y., catalog # […], lot # BRH02236) containing heparin as anticoagulant, pH of all plasma aliquots was 8.3. […] Samples (100 μL) were quenched with 1 mL of acetonitrile. […] Samples were resuspended in 120 μL of mobile phase buffer before HPLC analysis. For plasma samples, 40 μL or 50 μL samples were injected onto the column described in Example E with mobile phase buffer, 20 mM potassium phosphate buffer, pH 6.2 (Fisher Scientific, catalog # P261-1, various lots). All other HPLC analysis was performed as described in Example E.

human liver microsomes = assay: Enzyme kinetics of prodrug activation to araCMP in human liver microsomes; details: activation to araCMP
Aqueous stability = assay type: physicochemical; details: 50 μM
Procedure: Diluted solutions (50 μM) were incubated at 37° C. in a Fisher Scientific dry bath incubator (catalog # 11-718-2) with samples collected every 24 hours and stored at −80° C. Plasma samples (100 μL) were quenched with 1 mL of acetonitrile. […] Samples were resuspended in 120 μL of mobile phase buffer before HPLC injection.
Samples were analyzed on an HP1090 or HP1100 (Hewlett Packard) HPLC using a C-18 Alltech Econosphere column, 150 mm×4.6 mm (catalog # 70065), with a C-18 Alltech Econosphere guard column, 7.5 mm×4.6 mm (catalog # 96121). Samples were eluted with a methanol gradient: 0% for 5 minutes, then increasing to 10% at 10 minutes, 30% at 20 minutes, and 60% at 25 minutes. The column was allowed to equilibrate in 0% methanol for 10 minutes before the next injection. The flow rate was 1 mL/minute with a column temperature of 40° C. Prodrugs eluted around 19.5 minutes and were monitored by UV absorbance at 280 nm. For prodrugs in aqueous conditions, the same method was employed except the methanol gradient was as follows: 0% for 5 minutes, increasing to 10% at 10 minutes, and 30% at 20 minutes with prodrug eluting around 20 minutes.

Solubility = assay type: physicochemical
Procedure: With each of the three buffer systems, saturating solutions of Compound A and Compound B were prepared as follows. […] The resultant vials were sealed and equilibrated by tumbling at 25° C. for a minimum of 24 h. At the end of the incubation period, prodrug that was not in solution was removed from the samples by filtration through a 0.45 μm pore size nylon syringe filter. These diluted samples were assayed by the HPLC method of example E.

[5] = Compound C 1000 mg/kg/day of nucleoside equivalents
[6] = rats, 200 mg CE/kg/day continuous intravenous infusion

AUC(0-t) ([1]; male, Swiss Webster, mouse, plasma, ip, 100 mg (cytarabine equivalents)/kg): 121 µM·h
Plasma araC steady state ([3]; rats, AraC at 2000 mg/kg/day continuous infusion): ~300 µM
SMILES: Nc1ccn([C@@H]2O[C@H](CO)[C@@H](O)[C@@H]2O)c(=O)n1 [AraC, 1-(β-D-Arabinofuranosyl)cytosine]
histopathology of liver, kidney and small intestine [2]: no toxicologically relevant histopathologic changes
hepatotoxicity ([2]; 5-day repeated dose): No hepatotoxicity was observed
number of nucleated bone marrow cells, circulating PMNs, mononuclear cells, and platelets ([2]; 30 and 100 mg/kg/day i.p. for 5 days): significantly decreased
red blood cell parameters (erythrocyte numbers, hematocrit, hemoglobin) [2]: lowered erythrocyte numbers, hematocrit, and hemoglobin significantly
Creatinine ([2]; araC 100 mg/kg/day): lowered
bone-marrow cellularity, % of that in vehicle-treated animals ([2]; araC 100 mg/kg/day i.p. for 5 days): 11%
effect on body weight [2, 5]: progressive and statistically significant drop in body weight
Alkaline phosphatase ([2]; highest dose of araC (100 mg/kg/day)): significantly decreased
Glucose [2]: lowered

SMILES: Nc1ccn([C@@H]2O[C@H](COP3(=O)OCCC(c4ccncc4)O3)[C@@H](O)[C@@H]2O)c(=O)n1 (relative stereo) [Compound C, 2(1H)-Pyrimidinone, 4-amino-1-[5-O-cis-[2-oxido-4-(4-pyridinyl)-1,3,2-dioxaphosphorinan-2-yl]-β-D-arabinofuranosyl]]
reduction of peripheral exposure (liver targeting) [1]: ~20 fold
histopathology of liver, kidney and small intestine [2]: no toxicologically relevant histopathologic changes
hepatotoxicity ([2]; 5-day repeated dose): No hepatotoxicity was observed
safety relative to araC in terms of hematologic endpoints ([2]; 5-day repeated dose): ≥ 30 fold
red blood cell parameters (erythrocyte numbers, hematocrit, hemoglobin) [2]: similarly affected these parameters, but at ten-fold higher doses
dose required to reduce nucleated bone marrow cells, relative to araC [2, 5]: 30 fold
PMN, mononuclear cell, or platelet numbers ([2]; any dose (30-1000 mg/kg/day CE) i.p. for 5 days): did not affect
effect on body weight [2, 5]: no significant effect
Glucose [2]: lowered
reduction of peripheral exposure (liver targeting) ([3]; rat, in vivo, iv): ~10 fold
half-lives in human plasma [4]: > 1 days

SMILES: Nc1ccn([C@@H]2O[C@H](CO[P@]3(=O)OCC[C@H](c4ccncc4)O3)[C@@H](O)[C@@H]2O)c(=O)n1 [Compound B, 2(1H)-Pyrimidinone, 4-amino-1-[5-O-[(2S,4R)-2-oxido-4-(4-pyridinyl)-1,3,2-dioxaphosphorinan-2-yl]-β-D-arabinofuranosyl]]
Liver araCTP Peak @ 1 hr ([1]; Mouse, 100 mg (cytarabine equivalents)/kg single IP injection): 27 nmol/g
LTI (Liver/plasma) ([1]; Mouse, 100 mg CE/kg single IP, liver araCTP AUC / plasma araC AUC): 19.6 nmol/g/μM
reduction of peripheral exposure (liver targeting) [1]: ~20 fold
liver araCTP peak at 60 minutes post injection ([1]; mice, single i.p. bolus, 100 mg/kg CE): 27.00 ± 4.04 nmol/g
Vmax (human liver microsomes; 2 mg/mL human liver microsomes lot RQX, 1 mM NADPH, pH 7.4, 37° C, 5 min): 0.13 ± 0.02 nmol/min/mg
Km (human liver microsomes; human liver microsomes lot RQX): 3.13 ± 0.51 mM
reduction of peripheral exposure (liver targeting) ([3]; administered by continuous intravenous infusion): ~10 fold
LTI @ 24 hrs (Liver/plasma) [3, 6]: >12 nmol/g/μM
Liver araCTP 24 hr [3, 6]: 5.9 nmol/g
Liver araCTP @ 4 hr [3, 6]: 6.4 nmol/g
Plasma Prodrug steady state [3, 6]: 25 to 35 µM
Plasma araC steady state [3, 6]: <0.5 µM
liver araCTP compared with Compound A ([3]; rats, continuous infusion 200 mg/kg/24 hours CE): less araCTP in the liver than Compound A
t90 in aqueous solution (Aqueous stability; 100 mM Pi, pH 7.4, 37° C): 4 days
t90 in aqueous solution (Aqueous stability; 100 mM citrate, pH5.0, 37° C): 1.7 days
solubility (Solubility; 0.5 M Pi pH 8.0 buffer, 25° C): 10.2 mg/mL (≈ 23.2 mM)
solubility (Solubility; 0.5 M citrate pH 4.0, 25° C): 94.6 mg/mL (≈ 215 mM)
solubility (Solubility; 0.5 M citrate pH 7.0, 25° C): 9.0 mg/mL (≈ 20.4 mM)
